Source: patent publication US20260055126A1, “SMALL MOLECULE COMPOUNDS WITH PHOSPHORYLATED ARYL STRUCTURES AND USE THEREOF” (HANGZHOU PHECDAMED CO., LTD., priority 2022, published 2026)

Biological target: recombinant TEAD4 protein (217-434, Uniprot ID: Q15561) (Homo sapiens (Human), UniProt Q15561)
Test: Thermal shift assay (protein melting point curve), TEAD4
Type: binding
Settings: 10 μM TEAD protein, 50 μM test compound

Sequence of recombinant TEAD4 protein (217-434, Uniprot ID: Q15561) (Q15561 217-434): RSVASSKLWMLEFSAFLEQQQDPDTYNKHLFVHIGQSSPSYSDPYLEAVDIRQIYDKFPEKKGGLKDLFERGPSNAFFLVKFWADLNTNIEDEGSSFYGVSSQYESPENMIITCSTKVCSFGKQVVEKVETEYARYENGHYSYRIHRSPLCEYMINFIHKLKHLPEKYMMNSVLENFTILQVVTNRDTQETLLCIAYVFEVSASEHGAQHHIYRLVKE

**Q.** Which “Δ T m (TEAD4)” value does the source give for `CP(C)(=O)c1ccc(NCc2ccc(C(F)(F)F)cc2)c(-c2nccc(OC3COC3)n2)c1` [Compound 17] here?
**A.** ++
